This is an account of results in article PMC8538004, “Identification of a Novel Neuropeptide S Receptor Antagonist Scaffold Based on the SHA-68 Core” (Pharmaceuticals, 2021).

Entries after “also recorded” stand apart in the source; their conditions may differ. Where two headings read alike, the source gives them in different places.

A short description of data set [1]: Pharmacokinetic study in C57Bl6 mice. Format: in vivo, C57/Bl6 mice. The settings on record: 30 mg/kg i.p.; for Cmax: mouse, ip. The protocol: Animals were administered vehicle (1% n-methyl-2-pyrrolidone (NMP) with 0.5% Tween 80 in 0.5% carboxymethyl cellulose (CMC) in water) or compound 14b dissolved in the same vehicle (30 mg/kg, i.p.), and were euthanized at the appropriate timepoints by isoflurane overdose with decapitation. Trunk blood and brains were taken at 15, 30, 60, 120, and 240 min post-injection. Blood was collected in 5 mL tubes that had been preloaded with 0.5 M EDTA so that the final concentration would be approximately 5 mM. Blood/EDTA was centrifuged at 1000× g at 4 °C for 10 min. Plasma was collected and flash-frozen on dry ice and stored at −80 °C until analysis.
Stock solutions of 14b were prepared and diluted serially to generate standard curve and quality control spiking solutions. The concentrations in plasma and brain homogenate for 14b were 0.5, 1, 5, 10, 50, 100, 500, and 1000 ng/mL for standard curves.
Brains were weighed and homogenized at 1:5 (wt:vol) with 50:50 ethanol:water using a Geno/Grinder 2010 (SPEXSamplePrep, Metuchen, NJ, USA) twice at 1750 rpm for 30 s. Subsequently, 50 µL of plasma or brain homogenate was mixed with 150 µL of acetonitrile containing reserpine as internal standard (100 ng/mL) in a 96-well plate. The plate was shaken at 700 rpm for 3 min and then centrifuged at 4000 rpm for 10 min at 4 C. Then, 50 µL of supernatant was mixed with 50 µL of water in a new plate and analyzed by LC/MS-MS.
A SCIEX Exion AD UHPLC system (Framingham, MA) was used to inject 10 µL of the processed samples/calibration standards onto a Waters Acquity BEH C18 (2.1 mm × 100 mm, […]) column (Milford, MA). Mobile phase A consisted of 0.1% formic acid in water, and mobile phase B consisted of 0.1% formic acid in acetonitrile. […] Quantitation was achieved by multiple reaction monitoring in positive ion mode using an SCIEX 6500+ (Framingham, MA) QTRAP mass spectrometer. Compound 14b was quantitated by monitoring the transition of m/z 445.044 → 251.1, and the internal standard, reserpine, was monitored by m/z 609.300 → 194.9. […]

Data set [2] deals with NPS-mediated hyperlocomotion. As to the kind of experiment: NPS-stimulated locomotor activity (open field). The class given is in vivo, C57/Bl6 mice. On the procedure:
Male mice between 8 and 12 weeks of age were used for all tests. C57/Bl6 were obtained from the former NCI colony maintained by Charles River. Animals were housed with ad libitum access to food and water on a 12:12 h light:dark cycle with lights on at 06:00. Experiments were conducted between the hours of 09:00 and 15:00. All experiments were approved by the Institutional Animal Care and Use Committee of the State University of New York at Buffalo (PMY09073N) and conducted in accordance with the National Institutes of Health Guide for the Care and Use of Laboratory animals.
Mice were anesthetized using ketamine (100 mg/kg) and xylazine (5 mg/kg) and were secured to a stereotaxic frame once the appropriate plane of anesthesia was reached. An incision was made in order to expose the skull. […]
Open-field testing was conducted in clear plexiglass cages measuring 40 × 40 cm^2 interfaced by a grid array of infrared beams connected to a computer system which tracked and quantified the animals’ location and movements (OMNITECH Instruments, Columbus, OH, USA). […]
Statistical analyses were performed by ANOVA with Tukey’s multiple comparisons test analysis within GraphPad Prism 8 software (GraphPad Software, San Diego, CA, USA). All results are expressed as mean values ± SEM.

As usually defined, the Cmax is the peak of the concentration-time curve. In data set [1], `CC(C)CC1(c2ccccc2)OC(=O)C2=C1CN(C(=O)NCc1ccccc1)CC2` (single isomer, unassigned; (+)) [Compound 14b, (+) N-benzyl-3-(2-methylpropyl)-1-oxo-3-phenyl-1H,3H,4H,5H,6H,7H-furo[3,4-c]pyridine-5-carboxamide] came in with a Clearance in plasma of 288 mL/min/kg. In addition, the peak concentration (Cmax) turned out to be 186 ng/mL in data set [1] (brain, read-out: Cmax in brain) and 1940 ng/mL in data set [1] (plasma, read-out: Cmax in plasma). Further, the “Effect on NPS-mediated hyperlocomotion” value in data set [2] (3 mg/kg i.p. pretreatment, NPS 0.3 nmol ICV, total distance first 10 min, Veh-NPS vs. 14b-NPS p = 0.0389) is recorded as “attenuated; also recorded: able to block; also recorded: sufficient to significantly decrease; also recorded: significantly decreased”. Further, the “Effect on locomotion on its own” value in data set [2] (3 mg/kg i.p., aCSF ICV, Veh-aCSF vs. 14b-aCSF p = 0.8199) is recorded as “did not decrease locomotion”.
